# Reference: ChEMBL document CHEMBL1153256, “Unusual stereochemical preferences of decahydroisoquinoline-3-cargoxylic acid competitive NMDA antagonists” (Bioorg Med Chem Lett, 1993)
# Key:
# Mus musculus = species on record: Mus musculus; assay: Minimum effective dose to prevent NMDA-induced lethality in mice; assay type: functional
# Glutamate NMDA receptor = assay: Inhibition of [3H]-CGS- 19755 binding to rat brain membrane NMDA receptor
# Rattus norvegicus = species on record: Rattus norvegicus; assay: Compound was tested for relative potency as NMDA antagonist by determining its ability to inhibit depolarizations induced by 40 uM NMDA in a cortical slice preparation.; assay type: functional
Compound,MED (Mus musculus) [mg/kg],IC50 (Glutamate NMDA receptor) [µM],IC50 (Rattus norvegicus) [µM]
O=C(O)C1CC2CC(Cc3nnn[nH]3)CCC2CN1 (racemic; form 1),40,3.41,4.8
O=C(O)C1CC2CC(CP(=O)(O)O)CCC2CN1 (racemic; form 1),1.25,0.055,0.15
O=C(O)C1CC2CC(Cc3nnn[nH]3)CCC2CN1 (racemic; form 2),2.5,0.94,1.39
O=C(O)C1CC2CC(CP(=O)(O)O)CCC2CN1 (racemic; form 2),2.5,0.82,1.7
"O=C(O)C1CC2CC(Cc3nnn[nH]3)CCC2CN1 (single isomer, unassigned; (+))",>160,22.6,> 100
"O=C(O)C1CC2CC(CP(=O)(O)O)CCC2CN1 (single isomer, unassigned; (-))",0.625,0.025,0.22
O=C(O)C1CC2CC(CP(=O)(O)O)CCC2CN1 (stereo in doubt; (+)-1 R),80,8.4,33
O=C(O)C1CC2CC(CP(=O)(O)O)CCC2CN1 (stereo in doubt; (+)-3 S),,8.7,
O=C(O)C1CC2CC(Cc3nnn[nH]3)CCC2CN1 (stereo in doubt; (+)-4 S),,5.16,28
O=C(O)C1CC2CC(Cc3nnn[nH]3)CCC2CN1 (stereo in doubt; (-)-2 S),1.25,0.42,0.82
O=C(O)C1CC2CC(CP(=O)(O)O)CCC2CN1 (stereo in doubt; (-)-3 R),,0.67,
O=C(O)C1CC2CC(Cc3nnn[nH]3)CCC2CN1 (stereo in doubt; (-)-4 R),,3.32,6.2
